Results as given in PubChem BioAssay (NCI).
Values joined by “and” are separate entries in the source; they are usually repeats but may differ in a detail not shown here. Identical values can stand only once.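 Cultured in 96-well plates, cells were exposed to test compound for 48 hours across five concentrations. GI50 is the concentration that inhibits growth by half. TGI: concentration producing complete growth inhibition.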

How the values were obtained:
Assay in all cases: NCI-60 cell line screen, 48 h
HL-60(TB) leukemia = test system: HL-60(TB) leukemia
IGROV1 ovarian = test system: IGROV1 ovarian
MOLT-4 leukemia = test system: MOLT-4 leukemia
OVCAR-8 ovarian = test system: OVCAR-8 ovarian
SK-MEL-28 melanoma = test system: SK-MEL-28 melanoma
TK-10 renal = test system: TK-10 renal
U251 CNS = test system: U251 CNS
M14 melanoma = test system: M14 melanoma
SNB-19 CNS = test system: SNB-19 CNS
MCF7 breast = test system: MCF7 breast

Cc1ccc2c(c1)-c1c3c(nn1-c1ccccc1)-c1ccccc1SC3O2 (stereo not given)
TGI (HL-60(TB) leukemia): > 100 µM
TGI (IGROV1 ovarian): > 100 µM
TGI (MOLT-4 leukemia): > 100 µM
TGI (OVCAR-8 ovarian): > 100 µM
TGI (SK-MEL-28 melanoma): > 100 µM
TGI (TK-10 renal): > 100 µM
TGI (U251 CNS): > 100 µM

COc1cc2c[n+](C)c3c4cc(OC)c(OC(C)C)cc4ccc3c2cc1OC
TGI (HL-60(TB) leukemia): 91.9 µM
TGI (IGROV1 ovarian): > 100 µM
TGI (M14 melanoma): > 100 µM
TGI (MOLT-4 leukemia): > 100 µM
TGI (OVCAR-8 ovarian): > 100 µM
TGI (SK-MEL-28 melanoma): > 100 µM
TGI (SNB-19 CNS): > 100 µM
TGI (TK-10 renal): > 100 µM
TGI (U251 CNS): > 100 µM

COc1ccc2c(CN3CCCC[C@H]3C(=O)O)cc3cc4c(cc3c2c1)OCO4
GI50 (M14 melanoma): 3.72 µM
TGI (M14 melanoma): 10.5 µM
GI50 (MCF7 breast): 0.366 µM
TGI (MCF7 breast): 2.8 µM
GI50 (MOLT-4 leukemia): 0.278 µM
TGI (MOLT-4 leukemia): 2.3 µM
GI50 (OVCAR-8 ovarian): 0.457 µM
TGI (OVCAR-8 ovarian): 11.7 µM
GI50 (SK-MEL-28 melanoma): 0.7 µM
TGI (SK-MEL-28 melanoma): 2.33 µM
GI50 (SNB-19 CNS): 1.59 µM
TGI (SNB-19 CNS): 5.74 µM
GI50 (TK-10 renal): 5.47 µM
TGI (TK-10 renal): 60.2 µM
GI50 (U251 CNS): 1.96 µM
TGI (U251 CNS): 5.4 µM

C[C@H](OCc1ccccc1)C(=O)N1CCS(=O)(=O)N2CCC[C@@H]2C1=O
TGI (HL-60(TB) leukemia): > 100 µM
TGI (IGROV1 ovarian): > 100 µM
TGI (M14 melanoma): > 100 µM
TGI (MOLT-4 leukemia): > 100 µM
TGI (OVCAR-8 ovarian): > 100 µM
TGI (SK-MEL-28 melanoma): > 100 µM
TGI (SNB-19 CNS): > 100 µM
TGI (TK-10 renal): > 100 µM
TGI (U251 CNS): > 100 µM

Cc1ccccc1C1OC(=O)c2ccc3ccccc3c21 (stereo not given)
TGI (HL-60(TB) leukemia): 8.01 µM
TGI (IGROV1 ovarian): > 31.6 µM
TGI (M14 melanoma): 10.9 µM
TGI (MOLT-4 leukemia): 7.18 µM
TGI (OVCAR-8 ovarian): 12.8 µM
TGI (SK-MEL-28 melanoma): 10.1 µM
TGI (SNB-19 CNS): > 91.5 µM
TGI (TK-10 renal): > 31.6 µM
TGI (U251 CNS): 13.3 µM

COC(C(=O)NN)c1ccccc1 (stereo not given)
TGI (IGROV1 ovarian): > 100 µM
TGI (M14 melanoma): > 100 µM
TGI (MCF7 breast): > 100 µM
TGI (MOLT-4 leukemia): > 100 µM
TGI (OVCAR-8 ovarian): > 100 µM
TGI (SK-MEL-28 melanoma): > 100 µM
TGI (SNB-19 CNS): > 100 µM
TGI (TK-10 renal): > 100 µM
TGI (U251 CNS): > 100 µM

COc1cc2c(cc1OC)[C@H](C)N1CCc3cc(OC)c(OC)cc3[C@@H]1C2
TGI (HL-60(TB) leukemia): > 100 µM
TGI (IGROV1 ovarian): > 100 µM
TGI (MCF7 breast): > 100 µM
TGI (MOLT-4 leukemia): > 100 µM
TGI (OVCAR-8 ovarian): > 100 µM
TGI (SK-MEL-28 melanoma): > 100 µM
TGI (SNB-19 CNS): > 100 µM
TGI (TK-10 renal): > 100 µM
TGI (U251 CNS): > 100 µM

C=Cc1cncc(C#N)c1CCc1c(C#N)cncc1C=C
GI50 (HL-60(TB) leukemia): > 100 µM
TGI (HL-60(TB) leukemia): > 100 µM
GI50 (IGROV1 ovarian): > 100 µM
TGI (IGROV1 ovarian): > 100 µM
GI50 (M14 melanoma): > 100 µM
TGI (M14 melanoma): > 100 µM
GI50 (MOLT-4 leukemia): > 100 µM
TGI (MOLT-4 leukemia): > 100 µM
GI50 (OVCAR-8 ovarian): > 100 µM
TGI (OVCAR-8 ovarian): > 100 µM
TGI (SK-MEL-28 melanoma): > 10 µM
GI50 (SNB-19 CNS): > 100 µM
TGI (SNB-19 CNS): > 100 µM
GI50 (TK-10 renal): > 100 µM
TGI (TK-10 renal): > 100 µM
GI50 (U251 CNS): > 100 µM
TGI (U251 CNS): > 100 µM

COc1ccc(CCN2CC=Cn3c2nc2ccccc2c3=O)cc1
GI50 (HL-60(TB) leukemia): < 0.0116 µM
TGI (HL-60(TB) leukemia): 0.0648 µM
GI50 (IGROV1 ovarian): 0.0509 µM
TGI (IGROV1 ovarian): > 50.3 µM
GI50 (MCF7 breast): 0.0307 µM
TGI (MCF7 breast): > 43 µM
GI50 (MOLT-4 leukemia): 0.0523 µM
TGI (MOLT-4 leukemia): > 100 µM
GI50 (OVCAR-8 ovarian): 0.054 µM
TGI (OVCAR-8 ovarian): > 41 µM
GI50 (SK-MEL-28 melanoma): 0.694 µM
TGI (SK-MEL-28 melanoma): > 100 µM
GI50 (SNB-19 CNS): 0.0614 µM
TGI (SNB-19 CNS): > 100 µM
GI50 (TK-10 renal): 40 µM
TGI (TK-10 renal): > 100 µM
GI50 (U251 CNS): 0.0368 µM
TGI (U251 CNS): > 100 µM

C=C/C=C/NC(=O)OCc1ccccc1
TGI (HL-60(TB) leukemia): > 100 µM
TGI (IGROV1 ovarian): > 100 µM
TGI (M14 melanoma): > 100 µM
TGI (MOLT-4 leukemia): > 100 µM
TGI (OVCAR-8 ovarian): > 100 µM
TGI (SK-MEL-28 melanoma): > 100 µM
TGI (SNB-19 CNS): > 100 µM
TGI (TK-10 renal): > 100 µM
TGI (U251 CNS): > 100 µM

CC1CCC/C1=C(/I)C(=O)c1ccccc1 (stereo not given)
TGI (HL-60(TB) leukemia): 70.4 µM
TGI (IGROV1 ovarian): > 100 µM
TGI (M14 melanoma): > 100 µM
TGI (MOLT-4 leukemia): 45.2 µM
TGI (OVCAR-8 ovarian): > 100 µM
TGI (SK-MEL-28 melanoma): > 100 µM
TGI (SNB-19 CNS): > 100 µM
TGI (TK-10 renal): > 100 µM
TGI (U251 CNS): > 100 µM

CCCCOC(=O)N1CCN(/[N+]([O-])=N/Oc2ccc([N+](=O)[O-])cc2[N+](=O)[O-])CC1
GI50 (HL-60(TB) leukemia): 6.85 µM
TGI (HL-60(TB) leukemia): > 100 µM
GI50 (IGROV1 ovarian): 2.17 µM
TGI (IGROV1 ovarian): 6.44 µM
GI50 (MCF7 breast): 3.31 µM
TGI (MCF7 breast): 8.57 µM
GI50 (MOLT-4 leukemia): > 100 µM
TGI (MOLT-4 leukemia): > 100 µM
GI50 (OVCAR-8 ovarian): 25.5 µM
TGI (OVCAR-8 ovarian): > 100 µM
GI50 (SK-MEL-28 melanoma): 13.7 µM
TGI (SK-MEL-28 melanoma): 35.7 µM
GI50 (SNB-19 CNS): 15.1 µM
TGI (SNB-19 CNS): 36.8 µM
GI50 (TK-10 renal): 10 µM
TGI (TK-10 renal): 21.8 µM
GI50 (U251 CNS): 5.85 µM
TGI (U251 CNS): 21.8 µM

CN(C(=O)C12C3C4C1C1C2C3C41C(N)=O)C(C)(C)C (stereo not given)
TGI (HL-60(TB) leukemia): > 100 µM
TGI (IGROV1 ovarian): > 100 µM
TGI (M14 melanoma): > 100 µM
TGI (MOLT-4 leukemia): > 100 µM
TGI (OVCAR-8 ovarian): > 100 µM
TGI (SK-MEL-28 melanoma): > 100 µM
TGI (SNB-19 CNS): > 100 µM
TGI (TK-10 renal): > 100 µM

CC(=O)Nc1ccc(S(=O)(=O)N/N=C/CN2C(=O)c3ccccc3C2=O)cc1
TGI (HL-60(TB) leukemia): > 100 µM
TGI (IGROV1 ovarian): > 100 µM
TGI (M14 melanoma): > 100 µM
TGI (MOLT-4 leukemia): > 100 µM
TGI (OVCAR-8 ovarian): > 100 µM
TGI (SNB-19 CNS): > 100 µM
TGI (TK-10 renal): > 100 µM
TGI (U251 CNS): > 100 µM

C[C@@]12CCC(=O)c3coc(c31)C(=O)c1cc3c(cc12)C(=O)C=CC3=O
GI50 (HL-60(TB) leukemia): > 1 µM
TGI (HL-60(TB) leukemia): > 1 µM and 5.5 µM
GI50 (IGROV1 ovarian): > 1 µM
TGI (IGROV1 ovarian): > 1 µM and 59.3 µM
GI50 (M14 melanoma): > 1 µM
TGI (M14 melanoma): > 1 µM and 27.6 µM
GI50 (MOLT-4 leukemia): > 1 µM
TGI (MOLT-4 leukemia): > 100 µM
GI50 (OVCAR-8 ovarian): > 1 µM
TGI (OVCAR-8 ovarian): > 1 µM and 30.2 µM
GI50 (SK-MEL-28 melanoma): > 1 µM
TGI (SK-MEL-28 melanoma): > 1 µM and 29.9 µM
GI50 (SNB-19 CNS): > 1 µM
TGI (SNB-19 CNS): > 100 µM
GI50 (TK-10 renal): > 1 µM
TGI (TK-10 renal): > 61 µM
GI50 (U251 CNS): > 1 µM
TGI (U251 CNS): > 1 µM and 52.9 µM

CC(CN(C)C)/C(=N\Nc1ccccc1)c1ccccc1 (stereo not given)
TGI (HL-60(TB) leukemia): 8.34 µM
TGI (IGROV1 ovarian): > 100 µM
TGI (M14 melanoma): 16.8 µM
TGI (MOLT-4 leukemia): 14 µM
TGI (OVCAR-8 ovarian): > 100 µM
TGI (SK-MEL-28 melanoma): 5.79 µM
TGI (SNB-19 CNS): 34.4 µM
TGI (TK-10 renal): 5.56 µM
TGI (U251 CNS): 5.88 µM

CCOC(=O)/C(C1=NCCN1)=C(\O)c1ccccc1
TGI (HL-60(TB) leukemia): > 100 µM
TGI (IGROV1 ovarian): > 100 µM
TGI (M14 melanoma): > 100 µM
TGI (MOLT-4 leukemia): > 100 µM
TGI (OVCAR-8 ovarian): > 100 µM
TGI (SK-MEL-28 melanoma): > 100 µM
TGI (SNB-19 CNS): > 100 µM
TGI (U251 CNS): > 100 µM

c1cncc(C2N3CCCCC3[C@@H]3c4[nH]c5ccccc5c4CCN23)c1 (stereo not given in full)
TGI (HL-60(TB) leukemia): > 100 µM
TGI (IGROV1 ovarian): > 100 µM
TGI (M14 melanoma): > 100 µM
TGI (MOLT-4 leukemia): > 100 µM
TGI (OVCAR-8 ovarian): > 100 µM
TGI (SK-MEL-28 melanoma): > 100 µM
TGI (SNB-19 CNS): > 100 µM
TGI (TK-10 renal): > 100 µM
TGI (U251 CNS): > 100 µM

CCCCCCCCCCCCCCCC(=O)OCC1OC(n2cc(F)c(=O)[nH]c2=O)C(N)C(O)C1O (stereo not given)
TGI (HL-60(TB) leukemia): 37.4 µM
TGI (M14 melanoma): 32.8 µM
TGI (MOLT-4 leukemia): 40.7 µM
TGI (OVCAR-8 ovarian): 37.1 µM
TGI (SK-MEL-28 melanoma): 31.1 µM
TGI (SNB-19 CNS): 39.2 µM
TGI (TK-10 renal): 46.5 µM
TGI (U251 CNS): 32.4 µM

O=C(C/C(=N/O)C(=O)NC1=C(Cl)C(=O)c2ccccc2C1=O)CC(c1ccccc1)c1c(O)c2ccccc2oc1=O (stereo not given)
TGI (IGROV1 ovarian): > 100 µM
TGI (M14 melanoma): 18.6 µM
TGI (MCF7 breast): 26.8 µM
TGI (MOLT-4 leukemia): > 100 µM
TGI (OVCAR-8 ovarian): > 100 µM
TGI (SK-MEL-28 melanoma): > 100 µM
TGI (SNB-19 CNS): > 100 µM
TGI (U251 CNS): > 100 µM
